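Five compound concentrations were applied to cells in 96-well plates for 48 hours; endpoints were derived by simple linear interpolation of the resulting dose-response curve. GI50 = concentration required for 50% inhibition of growth.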 Active and inactive are the calls of the source. Cut-off read from the data, not from the text of the source: active = GI50 up to about 1.1 µM and inactive = higher.
Columns and labels:
Assay in all cases: DTP human tumour cell line panel, 48 h
SF-295 = tested on: SF-295
786-0 = tested on: 786-0
NCI-H226 = tested on: NCI-H226
HCT-15 = tested on: HCT-15
LOX IMVI = tested on: LOX IMVI
NCI/ADR-RES = tested on: NCI/ADR-RES
OVCAR-8 = tested on: OVCAR-8
Malme-3M = tested on: Malme-3M
SW-620 = tested on: SW-620
SF-539 = tested on: SF-539
RXF 393 = tested on: RXF 393
BT-549 = tested on: BT-549
UACC-62 = tested on: UACC-62
EKVX = tested on: EKVX
HOP-62 = tested on: HOP-62
OVCAR-5 = tested on: OVCAR-5
HT-29 = tested on: HT-29
NCI-H460 = tested on: NCI-H460
U-251 = tested on: U-251
MDA-MB-435 = tested on: MDA-MB-435
SF-268 = tested on: SF-268
K562 = tested on: K562
COLO 205 = tested on: COLO 205
CCRF-CEM = tested on: CCRF-CEM
CAKI-1 = tested on: CAKI-1
SK-OV-3 = tested on: SK-OV-3
MOLT-4 = tested on: MOLT-4
UACC-257 = tested on: UACC-257
HL-60 = tested on: HL-60
DU-145 = tested on: DU-145
OVCAR-4 = tested on: OVCAR-4
SNB-19 = tested on: SNB-19
HCT-116 = tested on: HCT-116
A549 = tested on: A549
PC-3 = tested on: PC-3
NCI-H23 = tested on: NCI-H23
SK-MEL-2 = tested on: SK-MEL-2
UO-31 = tested on: UO-31
SNB-75 = tested on: SNB-75
SK-MEL-28 = tested on: SK-MEL-28
T47D = tested on: T47D
TK-10 = tested on: TK-10
ACHN = tested on: ACHN
SN12C = tested on: SN12C
M14 = tested on: M14
IGROV-1 = tested on: IGROV-1
OVCAR-3 = tested on: OVCAR-3
KM12 = tested on: KM12
MDA-MB-231 = tested on: MDA-MB-231
NCI-H522 = tested on: NCI-H522
Hs-578T = tested on: Hs-578T
SR = tested on: SR
SK-MEL-5 = tested on: SK-MEL-5
A498 = tested on: A498
HCC 2998 = tested on: HCC 2998
RPMI-8226 = tested on: RPMI-8226
MCF7 = tested on: MCF7
HOP-92 = tested on: HOP-92

Measured: GI50

COC(=O)C1=C(OC(=O)/C(=C/c2c(F)cccc2F)c2ccccc2)C(C(=O)OC)[C@@]2(O)[C@@H](C(=O)OC)[C@H](C)C[C@@H]1[C@@H]2C(=O)OC (stereo not given in full)
inactive: SF-295 > 100 µM | 786-0 > 100 µM | NCI-H226 > 100 µM | LOX IMVI > 100 µM | NCI/ADR-RES > 100 µM | OVCAR-8 > 100 µM | Malme-3M 68.5 µM | SW-620 > 100 µM | SF-539 > 100 µM | RXF 393 > 100 µM | BT-549 > 100 µM | UACC-62 > 100 µM | EKVX > 100 µM | HOP-62 > 100 µM | OVCAR-5 > 100 µM | HT-29 > 100 µM | NCI-H460 > 100 µM | U-251 > 100 µM | MDA-MB-435 > 100 µM | SF-268 > 100 µM | K562 > 100 µM | COLO 205 > 100 µM | CCRF-CEM > 100 µM | CAKI-1 > 100 µM | SK-OV-3 > 100 µM | MOLT-4 > 100 µM | UACC-257 > 100 µM | HL-60 > 100 µM | DU-145 > 100 µM | OVCAR-4 > 100 µM | SNB-19 > 100 µM | HCT-116 > 100 µM | A549 86.3 µM | PC-3 > 100 µM | NCI-H23 > 100 µM | SK-MEL-2 > 100 µM | UO-31 2.9 µM | SNB-75 > 100 µM | SK-MEL-28 > 100 µM | T47D > 100 µM | TK-10 > 100 µM | ACHN > 100 µM | SN12C > 100 µM | M14 > 100 µM | IGROV-1 59.4 µM | OVCAR-3 > 100 µM | KM12 > 100 µM | MDA-MB-231 > 100 µM | NCI-H522 6.76 µM
> 100 µM: HCT-15

COc1cc(C2C3=C(CCCC3=O)N(c3ccc(C)cc3)C3=C2C(=O)CCC3)c([N+](=O)[O-])cc1OC
68.1 µM: HCT-15
inactive: Hs-578T 75.9 µM | SR 54.2 µM | 786-0 63.1 µM | NCI-H226 76.9 µM | LOX IMVI 83.6 µM | NCI/ADR-RES > 100 µM | SK-MEL-5 64.6 µM | SW-620 > 100 µM | SF-539 61.1 µM | RXF 393 30 µM | BT-549 > 100 µM | UACC-62 90.4 µM | EKVX > 100 µM | OVCAR-5 > 100 µM | HT-29 59.4 µM | NCI-H460 > 100 µM | U-251 42 µM | A498 > 100 µM | SF-268 97.5 µM | K562 79.3 µM | CCRF-CEM 40.7 µM | CAKI-1 > 100 µM | SK-OV-3 > 100 µM | HCC 2998 > 100 µM | MOLT-4 24.2 µM | HL-60 45.4 µM | OVCAR-4 45.4 µM | SNB-19 > 100 µM | A549 54.5 µM | PC-3 > 100 µM | NCI-H23 > 100 µM | UO-31 > 100 µM | SNB-75 24.4 µM | SK-MEL-28 87.3 µM | TK-10 > 100 µM | ACHN 65.3 µM | SN12C > 100 µM | M14 > 100 µM | RPMI-8226 57.3 µM | MCF7 39.4 µM | HOP-92 52 µM | IGROV-1 > 100 µM | OVCAR-3 96.2 µM | KM12 > 100 µM
